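Exposure lasted 48 hours, with cells grown in 96-well plates and compounds tested at five concentrations. GI50 = concentration required for 50% inhibition of growth.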 The source made the active and inactive calls. Rule as the data show it: active = GI50 up to about 1.1 µM and inactive = higher.

The values that follow come from ChEMBL document CHEMBL1201862, “PubChem BioAssay data set” (2004).

Test systems include CAKI-1; OVCAR-4; A549; SNB-75; SF-295; HCT-116; SF-539; OVCAR-3; CCRF-CEM; Malme-3M; RPMI-8226; HOP-62; MOLT-4; HCT-15; EKVX; NCI-H460; TK-10; RXF 393.
Holding throughout (assay): growth of human tumour cells (NCI), 48 h

Take `O=C(O)/C(Cl)=C(\Cl)C(=O)NC1C2CC3CC(C2)CC1C3` (configuration not stated): the GI50 in the assay on CAKI-1, with OVCAR-4, with A549, in the assay with SNB-75, in the assay with SF-295 and with HCT-116 was > 100 µM (inactive) each time. Besides, the GI50 in the assay on SF-539, in the assay on OVCAR-3, in the assay with CCRF-CEM, in the assay on Malme-3M, in the assay on RPMI-8226 and in the assay on HOP-62 was > 100 µM (inactive) each time. The results for the GI50 in the assay on MOLT-4, in the assay on HCT-15 and in the assay on EKVX were > 100 µM (inactive), greater than 100 µM and > 100 µM (inactive), respectively.

Regarding `CNC(=S)NC1CCCCC1NC(=S)NC` (configuration not stated), the GI50 in the assay on CAKI-1, in the assay on OVCAR-4, with A549, with SNB-75, in the assay on SF-295 and with HCT-116 was > 100 µM (inactive) each time. In addition, the GI50 in the assay on SF-539, in the assay on NCI-H460, in the assay with OVCAR-3, with CCRF-CEM, in the assay with Malme-3M and in the assay with RPMI-8226 was > 100 µM (inactive) throughout. Besides, the GI50 with HOP-62 was > 100 µM (inactive); in the assay with MOLT-4, > 100 µM (inactive); in the assay on HCT-15 it was greater than 100 µM; in the assay on EKVX it was > 100 µM (inactive).

Regarding `O=C(N/C(=C\c1cccc([N+](=O)[O-])c1)c1nc2ccccc2[nH]1)c1ccccc1`, the GI50 in the assay with CAKI-1 is 59.4 µM (inactive); with OVCAR-4, > 100 µM (inactive); in the assay with A549, 35.2 µM (inactive); in the assay on SNB-75, 36.4 µM (inactive); with HCT-116, 59.8 µM (inactive); in the assay on SF-539, 45.6 µM (inactive). The GI50 in the assay on NCI-H460 was 87.1 µM (inactive); with OVCAR-3, 51.2 µM (inactive); in the assay on CCRF-CEM it was 34.4 µM (inactive); in the assay on Malme-3M, > 100 µM (inactive); in the assay on RPMI-8226 it was 40.8 µM (inactive); in the assay on HOP-62, 42.8 µM (inactive). In addition, the GI50 is 32.9 µM (inactive) in the assay with MOLT-4, 26.1 µM in the assay with HCT-15 and > 100 µM (inactive) with EKVX.

Turning to `CC12CC3C(CC1SCC(=O)O2)C3(C)C` (configuration not stated), the GI50 in the assay on OVCAR-4, in the assay with A549, in the assay on SNB-75, with SF-295, in the assay with HCT-116 and in the assay on SF-539 was > 100 µM (inactive) throughout. Besides, the GI50 with NCI-H460, with OVCAR-3, in the assay with TK-10, in the assay on CCRF-CEM, in the assay with Malme-3M and with RPMI-8226 was > 100 µM (inactive) throughout. The GI50 is > 100 µM (inactive) in the assay on MOLT-4, greater than 100 µM in the assay with HCT-15 and > 100 µM (inactive) in the assay with EKVX.

As for `CC(C)C(/C=C/c1ccc(Br)cc1)=N\NC(N)=O`, the GI50 in the assay with CAKI-1, in the assay on OVCAR-4, with A549, in the assay on SNB-75, in the assay on SF-295 and in the assay with HCT-116 was > 100 µM (inactive) throughout. For the same molecule, the GI50 in the assay on SF-539, in the assay on NCI-H460, in the assay on TK-10, in the assay on CCRF-CEM, in the assay with RXF 393 and in the assay with RPMI-8226 was > 100 µM (inactive) in each case. The GI50 in the assay with HOP-62 is > 100 µM (inactive); in the assay with MOLT-4, > 100 µM (inactive); with HCT-15, greater than 100 µM; in the assay on EKVX, > 100 µM (inactive).

With `CC(=O)OC12c3ccccc3C1CCCCCC21OCCCO1` (configuration not stated), the GI50 in the assay with CAKI-1, in the assay with OVCAR-4, in the assay with A549, with SNB-75, in the assay on SF-295 and with HCT-116 was > 100 µM (inactive) throughout. The GI50 in the assay with SF-539, in the assay on NCI-H460, in the assay with OVCAR-3, with TK-10, in the assay on CCRF-CEM and in the assay on RXF 393 was > 100 µM (inactive) each time. For the same molecule, the GI50 with RPMI-8226 was > 100 µM (inactive); in the assay with HOP-62, > 100 µM (inactive); with MOLT-4 it was > 100 µM (inactive); in the assay on HCT-15, greater than 100 µM.

`CN(C)CC1CCC/C1=N\O` (configuration not stated): the GI50 in the assay with CAKI-1, in the assay on OVCAR-4, in the assay with SNB-75, with SF-295, in the assay with HCT-116 and with SF-539 was > 100 µM (inactive) throughout. The GI50 in the assay with NCI-H460, in the assay with OVCAR-3, with TK-10, with CCRF-CEM, in the assay on RXF 393 and in the assay on RPMI-8226 was > 100 µM (inactive) each time. For the same molecule, the GI50 in the assay with HOP-62 was > 100 µM (inactive); in the assay on MOLT-4 it was > 100 µM (inactive); with HCT-15 it was greater than 100 µM.

Consider `CC(CC(=O)N1C(=O)C(C)(C)[C@@H](O)[C@H]1CC(C)C(Cl)(Cl)Cl)C(Cl)(Cl)Cl` (some centres not stated), for which the GI50 in the assay with CAKI-1, with OVCAR-4, in the assay on A549, in the assay on SNB-75, in the assay on SF-295 and in the assay with HCT-116 was > 100 µM (inactive) throughout. Further, the GI50 with SF-539, with NCI-H460, in the assay with OVCAR-3, with TK-10, with CCRF-CEM and in the assay on Malme-3M was > 100 µM (inactive) each time. Also, the GI50 in the assay with RPMI-8226 is > 100 µM (inactive); with HOP-62, > 100 µM (inactive); in the assay on MOLT-4 it was > 100 µM (inactive); in the assay with HCT-15 it was greater than 100 µM; in the assay on EKVX it was > 100 µM (inactive).

Take `O=C(CCc1n[nH]c(=S)o1)Nc1cc(Cl)ccc1Cl`: the GI50 with CAKI-1 is > 100 µM (inactive); with OVCAR-4 it was > 100 µM (inactive); with A549, 50.6 µM (inactive); in the assay with SNB-75 it was > 100 µM (inactive); with SF-295, > 100 µM (inactive); in the assay on HCT-116, 16.1 µM (inactive). Besides, the GI50 in the assay on SF-539 was > 100 µM (inactive); with NCI-H460, 51.3 µM (inactive); in the assay with OVCAR-3, > 100 µM (inactive); with TK-10, > 100 µM (inactive); in the assay with CCRF-CEM, 33.8 µM (inactive); with Malme-3M it was > 100 µM (inactive). The GI50 is 19.1 µM (inactive) with RPMI-8226; > 100 µM (inactive) with HOP-62; > 100 µM (inactive) in the assay on MOLT-4; 20.7 µM in the assay on HCT-15; > 100 µM (inactive) in the assay with EKVX.
